Laboratory results: patent publication US20230041980A1, “METHOD OF PROTECTING A RESPIRATORY TRACT OR A LUNG FROM DAMAGE, METHOD OF PROTECTING A LUNG FROM PRESSURE DAMAGE INDUCED BY A VENTILATOR, METHOD OF SUPPRESSING SPREAD OF INFECTION WITH VIRUSES OR BACTERIA THAT CAUSE PNEUMONIA IN PULMONARY BRONCHIAL EPITHELIAL CELLS OR ALVEOLAR EPITHELIAL CELLS, AND …” (NEXT21 KABUSHIKI KAISHA, priority 2020, published 2023)

Assays:
Asthma model mice [1] = assay: Airway resistance and compliance of OVA asthma model mice; format: in vivo, BALB/c mice; conditions: versus amount of muscarine receptor stimulant, inhalation, compared with OVA/OVA; for airway resistance: FIG. 2A; for compliance: FIG. 2B
Procedure: (§1) Asthma model mice were produced using BALB/c mice (8 to 10 weeks old) and ovalbumin (OVA) serving as an antigen, and examinations were conducted by administering trehalose by inhalation. On the first day and the fourteenth day, a physiological saline solution or OVA was intraperitoneally administered. 20 micrograms of OVA was administered to one mouse using aluminum hydroxide as an adjuvant. From the twenty-seventh day to the thirty-first day, 10% trehalose or distilled water was administered by inhalation for 20 minutes every day. Moreover, from the twenty-eighth day to the thirtieth day, a physiological saline solution or 1% OVA was administered by inhalation for 20 minutes, 1 to 1.5 hours after the above-mentioned inhalation. On the thirty-second day, evaluation was conducted using an assay system for evaluating allergic airway inflammation and hyperresponsive airway.
The airway resistance and the compliance of the model mice of Example 1 were measured. […] On the other hand, FIGS. 2A and 2B also show the results of the experiment in which lactose was used instead of trehalose (OVA/OVA+Lac).

Asthma model mice [2] = assay: Numbers of inflammation-inducing cells in bronchoalveolar lavage fluid; format: in vivo, BALB/c mice; conditions: inhalation; compared with OVA/OVA; FIG. 4
Procedure: as §1, with “airway. Bronchoalveolar lavage was performed on the model mice of Example 1, and the numbers of various cells obtained through the bronchoalveolar lavage were compared and examined. It should be noted that, in this example, 0.5 mL of a physiological saline solution containing 50 μg of ovalbumin (OVA) and 1 mg of aluminum hydroxide gel serving as an adjuvant was administered to OVA-administration mice (OVA/OVA) […]. […]” for “airway.”

TNF-α [3] = assay: TNF-α induced by heat-shocked dead cell solution (ELISA); format: cell-based; conditions: 10% aqueous trehalose vs saline added to cell solution (53° C. 10 minutes); RAW264.7 cells, 8 hours; FIG. 7E
Procedure: Moreover, RAW264.7 cells cultured in a 225-cm^2 flask were collected, and heat shock was applied to the cells at 53° C. for 10 minutes. Then, the cells were left to stand at 37° C. for 5 hours to induce cell death, and the resulting solution was used as a cell solution. Thereafter, a physiological saline solution (saline) or a 10% aqueous solution of trehalose (trehalose) was added to the cell solution, and the resulting solution was treated on ice for 30 minutes. The above-mentioned cell solution was added to RAW264.7 cells that were being cultured in 6 wells, and the cells were cultured for another 8 hours. Then, TNF-α was measured using ELISA (manufactured by R&D Systems).
In this test, the cell solution including dead cells induced by heat shock was used as a model of cell disruption caused by a burn.

[4] = system: alveolar epithelial cells; assay: Pulmonary tissue sections, H.E. and PAS staining, asthma model mice; format: in vivo, BALB/c mice; conditions: primary inhalation of trehalose, FIGS. 3A, 3B
Procedure: as §1, with “airway. Pulmonary tissue pathological sections were produced from the model mice of Example 1, and the diseases state was observed through hematoxylin-eosin (H.E.) staining and periodic acid-Schiff (PAS) staining. FIGS. 3A and 3B show the results of H.E. staining and the results of PAS staining, respectively.” for “airway.”

PLA2 = assay: Released [3H]-arachidonic acid after drying stimulus (PLA2 activation); format: cell-based; conditions: 7.5% trehalose pretreatment 15 minutes, dried 7 minutes; Ca9-22; FIG. 8B
Procedure: The oral epithelial cell line (Ca9-22) maintained in DMEM-10% FBS was treated with [^3H]-arachidonic acid overnight. Pretreatment with a physiological saline solution (Sal), 7.5% trehalose (Tre), or 7.5% maltose (Mal) was conducted for 15 minutes, and then the cells were dried for 7 minutes. Subsequently, a culture medium was added, and then the cells were cultured for 1 hour.

IL-13 = IL-13 level in bronchoalveolar lavage fluid (ELISA); format: in vivo, BALB/c mice; conditions: OVA/OVA+Treh vs OVA/OVA, FIG. 5C
Procedure: as §1, with “airway. Bronchoalveolar lavage was performed on the model mice of Example 1, and the numbers of various cells obtained through the bronchoalveolar lavage were compared and examined. […] The cytokine levels in the bronchoalveolar lavage fluids obtained in Example 4 were measured using an ELISA measurement kit. […] It should be noted that interferon (IFN-γ) was not detected from any of the groups. […]” for “airway.”

prostaglandin E2 = assay: Prostaglandin E2 induced by homogenized cell lysate (EIA); format: cell-based; conditions: lysate homogenized in 10% aqueous trehalose vs saline; RAW264.7 cells, 8 hours; FIG. 7C
[5] = system: RAW264.7 cells (macrophages); assay: Lipid peroxides (LPO) in cells treated with hemolysate; format: cell-based; conditions: 5% trehalose, 10% hemolysate for 3 hours, FIG. 6A
Procedure: (§2) Suppression of PLA2 activation caused by applying hydrogen peroxide stimulus to RAW264.7 cells (macrophages) was measured using [^3H]-AA release assay. FIGS. 6A and 6B show the measurement results showing the influence of trehalose on hemolysate or oxygen free radicals. FIGS. 6A and 6B show the measurement results in the case where a culture medium or hemolysate contains a physiological saline solution (Sal), 5% trehalose (Ire), or 5% maltose (Mal). […] In this experiment, RAW264.7 cells were treated with 10% hemolysate for 3 hours. The hemolysate was prepared as a supernatant by suspending erythrocytes of a Wistar rat in a saline solution, an aqueous solution of trehalose, or an aqueous solution of maltose, sonicating the resulting suspension, and then centrifuging the suspension. The LPO level was measured through a colorimetric analysis using a divalent iron molecule. […] In this experiment, RAW264.7 cells were labeled with [3H] arachidonic acid overnight and then treated with hydrogen peroxide for 3 hours. The level of released arachidonic acid was quantified by measuring the radioactivity of the collected culture medium.

[6] = system: oral epithelial cell line (Ca9-22); assay: LIVE/DEAD assay after drying stimulus; format: cell-based; conditions: 7.5% trehalose pretreatment 15 minutes, dried 7 minutes, FIG. 8A
IL-5 = IL-5 level in bronchoalveolar lavage fluid (ELISA); format: in vivo, BALB/c mice; conditions: OVA/OVA+Treh vs OVA/OVA, FIG. 5B
Procedure: as §1, with “airway. Bronchoalveolar lavage was performed on the model mice of Example 1, and the numbers of various cells obtained through the bronchoalveolar lavage were compared and examined. […] The cytokine levels in the bronchoalveolar lavage fluids obtained in Example 4 were measured using an ELISA measurement kit. […] It should be noted that interferon (IFN-γ) was not detected from any of the groups. […]” for “airway.”

TNF-α [7] = assay: TNF-α induced by homogenized cell lysate (ELISA); format: cell-based; conditions: RAW264.7 cells
IL-1α = IL-1α induced by homogenized cell lysate (ELISA); format: cell-based; conditions: lysate homogenized in 10% aqueous trehalose vs saline; RAW264.7 cells, 8 hours; FIG. 7B
IL-4 = IL-4 level in bronchoalveolar lavage fluid (ELISA); format: in vivo, BALB/c mice; conditions: OVA/OVA+Treh vs OVA/OVA, FIG. 5A
Procedure: as §1, with “airway. Bronchoalveolar lavage was performed on the model mice of Example 1, and the numbers of various cells obtained through the bronchoalveolar lavage were compared and examined. […] The cytokine levels in the bronchoalveolar lavage fluids obtained in Example 4 were measured using an ELISA measurement kit. […] It should be noted that interferon (IFN-γ) was not detected from any of the groups. […]” for “airway.”

TGF-β1 = TGF-β1 induced by homogenized cell lysate (ELISA); format: cell-based; conditions: lysate homogenized in 10% aqueous trehalose vs saline; RAW264.7 cells, 8 hours; acid-treated medium; FIG. 7D
Procedure: Moreover, RAW264.7 cells cultured in a 225-cm^2 flask were homogenized in a physiological saline solution (saline) or a 10% aqueous solution of trehalose (trehalose) using a homogenizer, and cell lysate was thus prepared. The above-mentioned cell lysate was added to RAW264.7 cells that were being cultured in 6 wells, and the cells were cultured for another 8 hours. Then, the culture medium was collected. The culture medium was treated with acid, and then TGF-β1 in the culture medium was measured using ELISA (manufactured by R&D Systems).
In the above-mentioned tests, the cell lysate obtained through homogenization using a homogenizer was used as a model of cell disruption caused by damage (including a surgical operation).

[8] = system: RAW264.7 cells (macrophages); assay: [3H]-arachidonic acid release after hydrogen peroxide stimulus; format: cell-based; conditions: 5% trehalose, hydrogen peroxide for 3 hours, FIG. 6B
Procedure: as §2

IgE antibody = IgE antibody levels in serum of OVA asthma model mice; format: in vivo, BALB/c mice; conditions: 10% trehalose by inhalation 20 min daily, day 27-31, OVA/OVA+Treh vs OVA/OVA, P<0.05
Procedure: as §1, with “airway. FIGS. 1A and 1B show the measurement results of the IgE antibodylevels in the serum. […] Suppressing the production of IgE antibodies makes it possible to suppress an increase in the severity of pulmonary tissue lesion caused by cytokine storm, which is an overreaction of the immune system caused by chemical mediators from mast cells. […]” for “airway.”

Structure (SMILES)	airway resistance (Asthma model mice [1])	compliance (Asthma model mice [1])	numbers of inflammation-inducing cells in bronchoalveolar lavage fluid (Total, Mo, Ly, Eo, Nt) (Asthma model mice [2])	TNF-α level induced by heat-shocked cell solution (TNF-α [3])	damage to alveolar epithelial cells (inflammatory cell infiltration, goblet cell hyperplasia) [4]	PLA2 activation caused by drying stimulus (released arachidonic acid) (PLA2)	IL-13 level in bronchoalveolar lavage fluid (IL-13)	prostaglandin E2 level induced by cell lysate (prostaglandin E2)	lipid peroxides (LPO) level [5]	cell death caused by drying stimulus (LIVE/DEAD assay) [6]	IL-5 level in bronchoalveolar lavage fluid (IL-5)	dose dependence of suppression of the TNT-α production (TNF-α [7]; cell lysate model)	TNF-α level induced by cell lysate (TNF-α [7]; lysate homogenized in 10% aqueous trehalose vs saline, 8 hours, FIG. 7A)	IL-1α level induced by cell lysate (IL-1α)	IL-4 level in bronchoalveolar lavage fluid (IL-4)	TGF-β1 level induced by cell lysate (TGF-β1)	level of released arachidonic acid [8]	total IgE level in serum (IgE antibody; FIG. 1A)	level of IgE specific to the antigen (ovalbumin) in serum (IgE antibody; FIG. 1B)
OC[C@H]1O[C@@H](O[C@H]2[C@H](O)[C@@H](O)C(O)O[C@@H]2CO)[C@H](O)[C@@H](O)[C@H]1O (stereo partly shown) [lactose, reference compound]	does not have an action of suppressing an increase in the airway resistance	not different from each other	does not have an action of suppressing the release of inflammation-inducing cells	–	–	–	–	–	–	–	–	–	–	–	–	–	–	–	–
OC[C@H]1O[C@H](O[C@H]2O[C@H](CO)[C@@H](O)[C@H](O)[C@H]2O)[C@H](O)[C@@H](O)[C@@H]1O [trehalose]	significantly reduced the airway resistance	significantly increased the compliance	significantly reduced cell release	significantly reduced	suppress damage to the alveolar epithelial cells	suppresses PLA2 activation caused by drying stimulus	significantly suppress the expression of cytokines	significantly reduced	protecting cells from oxygen free radicals and hemolysate	suppresses cell death caused by drying stimulus	significantly suppress the expression of cytokines	depends on the dosage of trehalose	significantly reduced	significantly reduced	significantly suppress the expression of cytokines	significantly reduced	protecting cells from oxygen free radicals and hemolysate	significantly reduce the production amount of IgE	significantly reduce the production amount of IgE
